US6494824B1, “Medical, radiotherapy source vial” (priority 1998, dated 2002)

Legend:
[1] = tested on: balloon-injured coronary arteries (neointimal formation); assay: Angioplasty balloon injury of porcine coronary arteries, xenon-133 radiogas balloon irradiation, morphometry after two weeks; type: in vivo; settings: for IA (intimal area): two weeks after treatment, control 1.04 ± 0.20; for IA/FL (intimal area corrected for medical fracture length): control 0.55 ± 0.06
Protocol: Prior art systems can falter with regards to dose homogeneity, optimal efficacy, radiation safety restrictions, patient handling, and radionuclide availability. The present medical radiation treatment system was developed and tested for irradiation with historically safe xenon-133 inert radiogas. In order to determine the efficacy of xenon-133 radiogas to inhibit neointimal formation and subsequent luminal restenosis, angioplasty balloon injury was performed in the coronary arteries of 17 juvenile porcine subjects. Following balloon injury of the coronary arteries of these porcine subjects, 3.0 to 3.5 mm balloons of 30 to 40 mm lengths were positioned to cover and overlap the injured vessel segment. A negative pressure was obtained in the radiocatheter prior to placement. Xenon-133 activity of 250-300 mCi (in 2.0-2.5 cc's) was injected to fill the balloon segment, uniformly abutting the lumen wall. A dose of either 15 Gy or 30 Gy was prescribed and delivered to a target tissue depth of 0.25 mm from the expanded balloon surface. The dwell time during inflation was 2±0.5 minutes (avg.). Prior in vitro dosimetry trials were performed to obtain reference micro-dosimetry results. Summary data analysis including reference tables and graphics, were performed and applied for delivery ranges as described above. This was performed using multiple trials with Cook GRII® balloon catheters of various coronary sizes with different quantities of xenon-133 (millicuries), exposure time (min.), and volumes (cc). Customized solid water phantoms, layered Gafchromic film, laser/light densitometry readings, and referenced dosimetry graphics were standardly applied to obtain these referenced measurements.
(§1) Localization of the radiogas filled balloon was verified by Gamma Camera and fluoroscopic imaging. The radiation exposure measured 100 mR/h at the chest wall and 5 mR/h immediately bedside. Two weeks following treatment, the animals were harvested, the arteries perfusion fixed, stained, and morphometrically analyzed. The intimal area (IA) was compared between the irradiated and control arteries.

[2] = Radiation exposure measured during radiogas balloon treatment; type: in vivo, porcine; settings: 250-300 mCi in balloon
Protocol: Prior art systems can falter with regards to dose homogeneity, optimal efficacy, radiation safety restrictions, patient handling, and radionuclide availability. The present medical radiation treatment system was developed and tested for irradiation with historically safe xenon-133 inert radiogas. In order to determine the efficacy of xenon-133 radiogas to inhibit neointimal formation and subsequent luminal restenosis, angioplasty balloon injury was performed in the coronary arteries of 17 juvenile porcine subjects. […] This was performed using multiple trials with Cook GRII® balloon catheters of various coronary sizes with different quantities of xenon-133 (millicuries), exposure time (min.), and volumes (cc). Customized solid water phantoms, layered Gafchromic film, laser/light densitometry readings, and referenced dosimetry graphics were standardly applied to obtain these referenced measurements.
as §1, with “The intimal area (IA) was compared between the irradiated and control arteries.” left out

radiation exposure ([2]; at the chest wall): 100 mR/h | radiation exposure ([2]; immediately bedside): 5 mR/h
Structure (SMILES): [133Xe] [Xe-133, xenon-133]
% absolute ratio reduction (IA/FL vs control) ([1]; 15 Gy): 71% | IA (intimal area) ([1]; 15 Gy at 0.25 mm tissue depth, n = 9): 0.34 ± 0.17 mm^2 | share of group showing IA (mm^2) of ≦0.06 ([1]; 15 Gy group): 66% | IA/FL (intimal area corrected for medical fracture length) ([1]; 15 Gy, n = 9): 0.16 ± 0.08 | % absolute ratio reduction (IA/FL vs control) ([1]; 30 Gy): 45% | IA (intimal area) ([1]; 30 Gy at 0.25 mm tissue depth, n = 8): 0.38 ± 0.18 mm^2 | share of group showing IA (mm^2) of ≦0.06 ([1]; 30 Gy group): 44% | thrombosis ([1]; 30 Gy group): slight trend toward increased thrombosis | IA/FL (intimal area corrected for medical fracture length) ([1]; 30 Gy, n = 8): 0.32 ± 0.12 | neointimal formation (conclusion from harvested vessels) ([1]; porcine model, radiogas balloon catheter): effective in markedly reducing neointimal formation
